Consider 10 molecules from patent publication US20220315587A1, “COMPOUNDS FOR TREATMENT OF CANCER” (SINOPSEE THERAPEUTICS, priority 2019, published 2022).

A value given as a limit tells only on which side of the number the result lay.

The subject of experiment [1] is PDGFRβ signaling (PDGFRβ autophosphorylation, Shp2 phosphorylation) in HEK293 cells expressing human PDGFR. The experiment can be described thus: Western blot of PDGFRβ signaling in HEK293 cell line model. Type of experiment: cell-based. The note with it: 20 ng/ml PDGF, FIG. 1. The protocol: FIG. 1 represents Western-blot analysis result of the compounds of Examples 1 and 2 in relation to inhibition of PDGFRβ and p-SHP2 signalling in HEK293 cells expressing PDGFRβ.
Human Embryonic kidney cells (HEK293) were constructed to express human PDGFRWT under the control of constitutive CMV promoter. Cells were grown in the presence of 20 ng/ml PDGF (the ligand for the PDGFRβ) to activate the PDGFRβ. Different concentrations of the compounds of Examples 1 and 2 were added to study their effect on the PDGFRβ-mediated signaling. Autophosphorylation of PDGFRβ and Shp2 phosphorylation were monitored by Western blotting and were used as the markers for PDGFRβ signaling. β-Actin was used as an internal control.
On the technique in general: A western blot detects proteins with antibodies after separation by electrophoresis.

Experiment [2] has as its system BA/F3 cells expressing PDGFR. The experiment is described as follows: Cell viability by MTS assay (MTS Assay 1). Type of experiment: cell-based. The note with it: for Activity compared to the imatinib and quizartinib controls (cell viability): MTS assay, FIGS. 2 and 3; for IC50: Mus musculus, BaF3, read-out: MTS Assay 1: concentration of compound required to reduce cell viability to 50%. The protocol:
FIG. 2 illustrates the effect of the compounds of Examples 1 to 4 on Ba/F3 cells expressing PDGFR. Results for imatinib and quizartinib are provided as positive controls.
(§1) The effect of the compounds on cell viability were determined using MTS assay. MTS Cell Proliferation Assay Kit is a colorimetric method for sensitive quantification of viable cells in proliferation and cytotoxicity assay. The method is based on the reduction of MTS tetrazolium compound by viable cells to generate a colored formazan product that is soluble in cell culture media. BA/F3 cells expressing the receptor tyrosine kinase (either PDGFR [MTS Assay 1] or Flt3 [MTS Assay 2]) were cultured in standard culture conditions in a 96-well microtiter plate (final volume of 200 μl/well) in the absence or presence of the compound to be tested and were incubated for 20-48 hrs. MTS Reagent (20 μl/well) was added into each well & incubated for 0.5-4 hours at 37° C. in standard culture conditions. Absorbance at 490 nm was recorded using a plate reader.
(§2) Results are shown in FIGS. 2 and 3, and Table 2 (where IC50 indicates the concentration of compound required to reduce cell viability to 50%).
(§3) For the MTS Assay, the result indicates the concentration of compound required to reduce cell viability to 50%.
(In general: Tetrazolium dyes change colour on reduction, which living cells bring about.)

Experiment [3] has as its target T1, BA/F3 cells expressing Flt3 (Homo sapiens, UniProt P36888, cells depend on it, form not given).
T1 sequence (P36888 1-993): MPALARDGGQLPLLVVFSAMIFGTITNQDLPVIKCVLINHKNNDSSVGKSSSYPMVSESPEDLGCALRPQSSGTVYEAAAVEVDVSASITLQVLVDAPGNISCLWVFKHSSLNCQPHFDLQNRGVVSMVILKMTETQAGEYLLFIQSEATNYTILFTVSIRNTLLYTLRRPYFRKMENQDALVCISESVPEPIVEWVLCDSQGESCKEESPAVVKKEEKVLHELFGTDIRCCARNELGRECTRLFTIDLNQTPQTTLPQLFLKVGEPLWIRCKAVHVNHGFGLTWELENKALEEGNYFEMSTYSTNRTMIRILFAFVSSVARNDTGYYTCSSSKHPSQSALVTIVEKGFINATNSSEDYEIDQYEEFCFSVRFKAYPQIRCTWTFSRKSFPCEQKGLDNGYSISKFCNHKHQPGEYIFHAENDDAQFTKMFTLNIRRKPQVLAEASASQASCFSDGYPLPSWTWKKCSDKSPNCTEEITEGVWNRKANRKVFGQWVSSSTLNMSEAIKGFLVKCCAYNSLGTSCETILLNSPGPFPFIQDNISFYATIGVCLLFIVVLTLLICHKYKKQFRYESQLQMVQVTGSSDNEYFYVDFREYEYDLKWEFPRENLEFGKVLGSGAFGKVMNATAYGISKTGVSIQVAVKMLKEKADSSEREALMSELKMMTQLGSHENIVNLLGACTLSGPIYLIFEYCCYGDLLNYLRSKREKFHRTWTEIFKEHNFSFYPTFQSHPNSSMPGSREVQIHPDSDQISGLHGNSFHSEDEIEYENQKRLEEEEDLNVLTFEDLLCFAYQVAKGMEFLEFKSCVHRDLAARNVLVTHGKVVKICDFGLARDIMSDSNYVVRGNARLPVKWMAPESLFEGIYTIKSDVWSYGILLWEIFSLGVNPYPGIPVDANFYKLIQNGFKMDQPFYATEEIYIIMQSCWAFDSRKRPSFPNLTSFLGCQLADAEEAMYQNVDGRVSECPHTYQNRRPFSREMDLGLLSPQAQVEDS
The experiment can be described thus: Cell viability by MTS assay (MTS Assay 2). Type of experiment: cell-based. The note with it: BA/F3 cells expressing Flt3, 20-48 hrs; symbol after the slash; read-out: MTS Assay 2: concentration of compound required to reduce cell viability to 50%. The protocol: FIG. 3 illustrates the effect of the compounds of Examples 5 to 7 on Ba/F3 cells expressing Flt3 kinase. Results for imatinib (negative control) and quizartinib (positive control) are also provided.
as §1, §2, §3

The target of another experiment is T2, Flt3 (Homo sapiens, UniProt P36888).
T2 sequence (P36888 27-993): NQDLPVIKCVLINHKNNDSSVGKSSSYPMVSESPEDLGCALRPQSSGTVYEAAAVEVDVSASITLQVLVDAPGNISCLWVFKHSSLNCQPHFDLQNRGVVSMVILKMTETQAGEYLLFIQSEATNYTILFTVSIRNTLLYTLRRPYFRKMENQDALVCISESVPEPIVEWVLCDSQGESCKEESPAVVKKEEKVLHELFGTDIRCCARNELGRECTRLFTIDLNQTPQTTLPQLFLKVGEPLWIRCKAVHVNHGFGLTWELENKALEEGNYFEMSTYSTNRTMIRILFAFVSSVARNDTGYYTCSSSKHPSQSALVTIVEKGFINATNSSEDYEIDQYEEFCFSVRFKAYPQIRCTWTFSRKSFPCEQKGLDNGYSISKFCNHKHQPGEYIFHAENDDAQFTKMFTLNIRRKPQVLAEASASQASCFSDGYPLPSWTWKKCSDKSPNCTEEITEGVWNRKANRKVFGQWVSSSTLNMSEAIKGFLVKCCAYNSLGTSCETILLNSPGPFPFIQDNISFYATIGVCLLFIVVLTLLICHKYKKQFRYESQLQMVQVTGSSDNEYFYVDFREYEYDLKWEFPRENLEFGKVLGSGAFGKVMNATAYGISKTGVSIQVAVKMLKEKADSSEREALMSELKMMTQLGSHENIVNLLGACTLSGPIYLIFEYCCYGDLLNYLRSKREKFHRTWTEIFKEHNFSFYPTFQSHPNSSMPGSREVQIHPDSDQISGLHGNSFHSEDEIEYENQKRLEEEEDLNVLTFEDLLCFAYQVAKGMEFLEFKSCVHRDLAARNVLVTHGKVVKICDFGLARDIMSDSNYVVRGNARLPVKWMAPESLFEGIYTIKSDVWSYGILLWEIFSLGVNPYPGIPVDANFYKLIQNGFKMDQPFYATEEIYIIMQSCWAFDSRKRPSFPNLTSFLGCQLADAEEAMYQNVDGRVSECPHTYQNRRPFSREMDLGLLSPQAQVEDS
The experiment can be described thus: In vitro kinase assay ([γ-33P]-ATP). In kind it is biochemical. The note with it: ATP at apparent ATP-Km of the kinase. The protocol:
(§4) To determine the inhibitory activity of compounds, in vitro kinase assays were performed on respective enzymes purified from Sf9 insect cells or E. coli as recombinant GST-fusion proteins or His-tagged proteins.

The target in a further experiment is CDK19 (Homo sapiens, UniProt Q9BWU1). The experiment can be described thus: In vitro kinase assay ([γ-33P]-ATP). Type of experiment: biochemical. Particulars: ATP at apparent ATP-Km of the kinase. How it is done: as §4
The target of another experiment is CDK8 (Homo sapiens, UniProt P49336). The experiment is described as follows: In vitro kinase assay ([γ-33P]-ATP). Type of experiment: biochemical. Particulars: ATP at apparent ATP-Km of the kinase. The protocol:
as §4

Another experiment concerns the target PDGFR-α (Homo sapiens, UniProt P16234). The experiment is described as follows: In vitro kinase assay ([γ-33P]-ATP). Particulars: ATP at apparent ATP-Km of the kinase. In kind it is biochemical. How it is done: as §4
The target of a further experiment is PDGFR-β (Homo sapiens, UniProt P09619). The experiment is described as follows: In vitro kinase assay ([γ-33P]-ATP). Type of experiment: biochemical. The note with it: ATP at apparent ATP-Km of the kinase. How it is done:
as §4

For another experiment, the target named is VEGFR-2 (Homo sapiens, UniProt P35968). The experiment can be described thus: In vitro kinase assay ([γ-33P]-ATP). Type of experiment: biochemical. The note with it: ATP at apparent ATP-Km of the kinase. The protocol:
as §4

CDK8, sequence (P49336 whole entry): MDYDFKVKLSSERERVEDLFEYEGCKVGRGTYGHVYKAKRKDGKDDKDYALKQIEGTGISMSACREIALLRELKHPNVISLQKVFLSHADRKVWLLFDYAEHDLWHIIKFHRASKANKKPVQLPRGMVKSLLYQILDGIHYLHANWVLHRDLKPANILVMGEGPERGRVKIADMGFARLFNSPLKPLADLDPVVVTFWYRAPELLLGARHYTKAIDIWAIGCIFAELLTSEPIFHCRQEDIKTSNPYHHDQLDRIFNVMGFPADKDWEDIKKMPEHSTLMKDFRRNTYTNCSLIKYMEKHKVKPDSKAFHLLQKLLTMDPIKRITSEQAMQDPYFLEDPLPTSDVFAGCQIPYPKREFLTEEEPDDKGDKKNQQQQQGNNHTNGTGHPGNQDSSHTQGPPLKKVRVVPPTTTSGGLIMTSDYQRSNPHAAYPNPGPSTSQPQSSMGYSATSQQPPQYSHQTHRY
CDK8, sequence (P24863 whole entry partner): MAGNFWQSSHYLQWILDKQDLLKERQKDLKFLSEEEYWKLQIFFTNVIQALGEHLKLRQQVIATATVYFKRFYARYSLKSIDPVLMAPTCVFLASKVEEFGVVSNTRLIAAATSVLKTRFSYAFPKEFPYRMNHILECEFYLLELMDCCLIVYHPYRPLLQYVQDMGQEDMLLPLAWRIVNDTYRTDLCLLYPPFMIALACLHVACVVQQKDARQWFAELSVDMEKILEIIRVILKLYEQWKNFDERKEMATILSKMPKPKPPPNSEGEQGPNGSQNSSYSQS
PDGFR-β, sequence (P09619 33-1106): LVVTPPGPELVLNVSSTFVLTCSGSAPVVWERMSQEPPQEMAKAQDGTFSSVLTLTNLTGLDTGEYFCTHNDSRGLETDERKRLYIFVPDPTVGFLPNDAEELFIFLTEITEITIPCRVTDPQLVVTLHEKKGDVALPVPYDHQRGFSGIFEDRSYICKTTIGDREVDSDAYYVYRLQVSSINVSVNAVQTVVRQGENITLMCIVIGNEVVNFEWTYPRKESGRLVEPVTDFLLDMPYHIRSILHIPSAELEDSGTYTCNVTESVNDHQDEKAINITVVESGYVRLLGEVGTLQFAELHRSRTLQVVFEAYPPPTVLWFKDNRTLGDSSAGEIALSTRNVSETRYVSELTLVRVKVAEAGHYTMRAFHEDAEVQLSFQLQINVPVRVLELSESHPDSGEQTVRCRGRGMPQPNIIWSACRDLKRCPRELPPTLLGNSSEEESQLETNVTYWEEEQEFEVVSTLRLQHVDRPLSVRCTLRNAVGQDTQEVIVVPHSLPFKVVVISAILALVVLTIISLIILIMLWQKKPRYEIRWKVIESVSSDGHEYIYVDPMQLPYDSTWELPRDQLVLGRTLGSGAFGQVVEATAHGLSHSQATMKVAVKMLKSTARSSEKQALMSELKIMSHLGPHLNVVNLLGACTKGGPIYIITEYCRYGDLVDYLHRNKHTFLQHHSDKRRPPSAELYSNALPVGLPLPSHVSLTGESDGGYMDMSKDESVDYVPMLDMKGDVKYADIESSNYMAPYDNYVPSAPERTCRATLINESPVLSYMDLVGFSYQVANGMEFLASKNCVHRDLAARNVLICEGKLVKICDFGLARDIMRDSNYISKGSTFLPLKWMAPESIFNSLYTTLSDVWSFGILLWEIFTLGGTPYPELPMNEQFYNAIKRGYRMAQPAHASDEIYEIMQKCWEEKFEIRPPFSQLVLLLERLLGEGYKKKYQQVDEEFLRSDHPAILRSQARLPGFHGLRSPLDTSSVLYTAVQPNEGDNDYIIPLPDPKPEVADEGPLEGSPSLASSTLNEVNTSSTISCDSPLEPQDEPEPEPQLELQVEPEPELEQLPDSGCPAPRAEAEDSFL
PDGFR-α, sequence (P16234 24-1089): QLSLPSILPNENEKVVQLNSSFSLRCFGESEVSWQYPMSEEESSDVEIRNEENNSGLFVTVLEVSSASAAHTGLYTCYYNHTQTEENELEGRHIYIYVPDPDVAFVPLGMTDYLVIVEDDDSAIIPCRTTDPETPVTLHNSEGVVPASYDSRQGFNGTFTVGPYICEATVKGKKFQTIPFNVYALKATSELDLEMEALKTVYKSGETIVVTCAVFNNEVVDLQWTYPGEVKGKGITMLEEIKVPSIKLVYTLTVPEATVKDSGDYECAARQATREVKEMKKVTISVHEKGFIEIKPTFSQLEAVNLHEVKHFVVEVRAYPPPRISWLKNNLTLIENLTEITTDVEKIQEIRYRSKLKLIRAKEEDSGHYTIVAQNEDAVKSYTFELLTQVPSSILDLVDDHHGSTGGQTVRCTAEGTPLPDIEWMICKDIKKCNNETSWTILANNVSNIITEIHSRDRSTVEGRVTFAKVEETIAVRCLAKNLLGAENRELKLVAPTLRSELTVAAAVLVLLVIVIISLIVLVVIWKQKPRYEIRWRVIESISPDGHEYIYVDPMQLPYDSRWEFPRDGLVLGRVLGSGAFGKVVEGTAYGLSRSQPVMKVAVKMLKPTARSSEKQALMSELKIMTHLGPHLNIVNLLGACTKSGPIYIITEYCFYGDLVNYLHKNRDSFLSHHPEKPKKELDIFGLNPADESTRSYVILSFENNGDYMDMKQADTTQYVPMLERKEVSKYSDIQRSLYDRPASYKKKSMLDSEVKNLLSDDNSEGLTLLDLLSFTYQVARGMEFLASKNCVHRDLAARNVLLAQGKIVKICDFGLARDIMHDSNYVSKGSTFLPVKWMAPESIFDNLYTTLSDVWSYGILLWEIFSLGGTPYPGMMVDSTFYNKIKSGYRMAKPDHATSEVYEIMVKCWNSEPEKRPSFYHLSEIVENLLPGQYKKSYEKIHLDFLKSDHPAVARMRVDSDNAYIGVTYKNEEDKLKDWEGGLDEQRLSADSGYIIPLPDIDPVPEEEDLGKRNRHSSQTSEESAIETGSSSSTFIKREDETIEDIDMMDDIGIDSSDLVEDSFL
CDK19, sequence (Q9BWU1 whole entry): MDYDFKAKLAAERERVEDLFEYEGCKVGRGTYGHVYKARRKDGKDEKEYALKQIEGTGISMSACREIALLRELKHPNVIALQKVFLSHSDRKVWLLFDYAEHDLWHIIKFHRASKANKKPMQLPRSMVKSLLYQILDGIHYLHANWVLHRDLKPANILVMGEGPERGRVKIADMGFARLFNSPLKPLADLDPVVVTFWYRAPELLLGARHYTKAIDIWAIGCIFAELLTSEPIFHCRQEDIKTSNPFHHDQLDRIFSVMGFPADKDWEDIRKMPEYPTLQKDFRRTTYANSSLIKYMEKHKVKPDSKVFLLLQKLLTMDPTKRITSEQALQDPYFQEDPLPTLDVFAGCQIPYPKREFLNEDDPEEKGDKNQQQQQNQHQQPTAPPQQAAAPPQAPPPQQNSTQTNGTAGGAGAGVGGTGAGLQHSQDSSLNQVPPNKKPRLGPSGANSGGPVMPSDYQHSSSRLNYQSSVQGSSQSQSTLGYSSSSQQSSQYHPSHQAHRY
CDK19, sequence (P24863 whole entry partner): as the sequence (P24863 whole entry partner) above
VEGFR-2, sequence (P35968 20-1356): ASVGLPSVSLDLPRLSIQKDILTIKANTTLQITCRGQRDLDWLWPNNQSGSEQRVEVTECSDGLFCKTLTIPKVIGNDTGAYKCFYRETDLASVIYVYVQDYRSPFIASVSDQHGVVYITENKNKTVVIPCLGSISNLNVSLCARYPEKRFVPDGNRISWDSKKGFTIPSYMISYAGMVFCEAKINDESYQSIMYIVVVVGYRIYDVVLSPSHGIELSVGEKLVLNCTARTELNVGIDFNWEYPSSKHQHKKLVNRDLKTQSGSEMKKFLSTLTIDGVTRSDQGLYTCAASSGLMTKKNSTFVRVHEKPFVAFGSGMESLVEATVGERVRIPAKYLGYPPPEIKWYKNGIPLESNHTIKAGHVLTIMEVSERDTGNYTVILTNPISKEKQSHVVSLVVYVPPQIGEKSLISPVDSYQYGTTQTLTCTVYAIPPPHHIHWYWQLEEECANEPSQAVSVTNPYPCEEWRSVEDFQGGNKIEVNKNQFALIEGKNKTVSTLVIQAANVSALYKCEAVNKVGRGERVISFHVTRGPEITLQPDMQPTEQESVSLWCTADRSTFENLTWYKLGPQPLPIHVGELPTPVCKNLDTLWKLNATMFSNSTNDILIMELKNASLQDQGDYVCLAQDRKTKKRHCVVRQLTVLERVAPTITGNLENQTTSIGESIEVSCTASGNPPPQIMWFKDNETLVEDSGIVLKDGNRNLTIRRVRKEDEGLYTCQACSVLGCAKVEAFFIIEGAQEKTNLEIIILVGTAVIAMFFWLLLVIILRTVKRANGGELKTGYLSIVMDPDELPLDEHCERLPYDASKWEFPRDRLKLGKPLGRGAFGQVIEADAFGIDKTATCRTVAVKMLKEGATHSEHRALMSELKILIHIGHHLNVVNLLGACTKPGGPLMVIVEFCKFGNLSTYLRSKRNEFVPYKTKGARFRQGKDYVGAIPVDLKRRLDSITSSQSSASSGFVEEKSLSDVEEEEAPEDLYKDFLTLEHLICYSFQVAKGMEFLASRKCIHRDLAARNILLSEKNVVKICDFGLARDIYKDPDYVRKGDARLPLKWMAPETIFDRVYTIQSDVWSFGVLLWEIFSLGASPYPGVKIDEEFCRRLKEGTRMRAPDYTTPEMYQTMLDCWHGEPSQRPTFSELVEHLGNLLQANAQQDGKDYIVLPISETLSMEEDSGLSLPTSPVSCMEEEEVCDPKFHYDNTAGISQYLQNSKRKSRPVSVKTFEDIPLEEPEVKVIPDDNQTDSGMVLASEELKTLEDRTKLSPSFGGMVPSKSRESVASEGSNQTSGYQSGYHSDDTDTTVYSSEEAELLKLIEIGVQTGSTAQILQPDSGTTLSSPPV

For the molecule `Cn1nc(NC(=O)COc2ccc(-c3cnc4ccccn34)cn2)cc1C(F)(F)F` [Example 1], in [1], the “Inhibition of PDGFRβ signaling (PDGFRβ autophosphorylation and Shp2 phosphorylation, Western blot)” value is listed as “able to inhibit PDGFRβ signaling”. Also, the “Activity compared to the imatinib and quizartinib controls (cell viability)” value in experiment [2] is given as “improved activity”. Further, the IC50 in [3] is below 500 nM.
`Cc1ccc(NC(=O)COc2ccc(-c3cnc4ccccn34)cn2)cc1C(F)(F)F` [Example 2]: in [1], the “Inhibition of PDGFRβ signaling (PDGFRβ autophosphorylation and Shp2 phosphorylation, Western blot)” value is on record as “able to inhibit PDGFRβ signaling”. In addition, the IC50 (in experiment [2]; on Flt3) was below 500 nM in each case.
As to `Cc1cnc(NC(=O)COc2ccc(-c3cnc4cnccn34)cn2)cc1C(F)(F)F` [Example 3], in experiment [2], the “Activity compared to the imatinib and quizartinib controls (cell viability)” value was “improved activity”. Moreover, the IC50 (in experiment [2]; on CDK19; on CDK8; at Flt3; on PDGFR-α; at PDGFR-β) was below 500 nM each time. Also, on VEGFR-2, the IC50 is below 500 nM.
Turning to `Cc1ccc(NC(=O)COc2ccc(-c3cnc4cnccn34)c(F)n2)cc1C(F)(F)F` [Example 7], the IC50 in [3] was below 500 nM.
Turning to `Cc1cnc(NC(=O)COc2ccc(-c3cnc4ccccn34)cn2)cc1C(F)(F)F` [Example 8], the IC50 (in [2]; at CDK19; at CDK8; at Flt3; on PDGFR-α; on PDGFR-β) was below 500 nM in each case. For the same molecule, at VEGFR-2, the IC50 was below 500 nM.
Regarding `Cn1nc(NC(=O)COc2ccc(-c3cnc4cnccn34)cn2)cc1C(F)(F)F` [Example 9], in [2], the IC50 is below 500 nM.
As for `Cc1ccc(NC(=O)CNc2ccc(-c3cnc4cnccn34)cc2)cc1C(F)(F)F` [Example 15], the IC50 in experiment [3] is below 500 nM.
On to `O=C(Nc1ccc(-c2cnc3cnccn23)cc1)C1(C(=O)Nc2cc(C(F)(F)F)c(Cl)cn2)CC1` [Example 20], for which the IC50 on CDK19 was below 500 nM; on CDK8, below 500 nM; at Flt3, above 5000 nM; on PDGFR-α, above 5000 nM; on PDGFR-β, above 5000 nM; at VEGFR-2 it was above 5000 nM.
For the molecule `Cn1nc(NC(=O)C2(C(=O)Nc3ccc(-c4cnc5cnccn45)cc3)CC2)cc1C(F)(F)F` [Example 21], the IC50 on CDK19 is below 500 nM; at CDK8, below 500 nM; on Flt3, above 5000 nM; on PDGFR-α it was above 5000 nM; on PDGFR-β, above 5000 nM; on VEGFR-2 it was above 5000 nM.
On to `Cn1nc(NC(=O)C2(C(=O)Nc3ccc(-c4cnc5cnccn45)c(F)c3)CC2)cc1C(F)(F)F` [Example 22], for which the IC50 on CDK19 was below 500 nM; on CDK8 it was below 500 nM; on Flt3, above 5000 nM; on PDGFR-α, above 5000 nM; on PDGFR-β it was above 5000 nM; at VEGFR-2, 500 to 5000 nM.
